# Test results taken from patent publication US11654183B2 (INTARCIA THERAPEUTICS, INC., priority 2017, dated 2023).
# Like-named read-outs stand apart in the source and are kept apart here.
# Tests used:
# [1] = Crossover study of ITCA 650 on steady-state PK and PD of the combination oral contraceptive Levora; conditions: ITCA 650 60 mcg/day, healthy premenopausal women
# Method: Twenty-eight (28) healthy premenopausal women on a stable regimen of an OC participated in a randomized, double-blind, placebo-controlled, 2-period crossover study. […] The study included a 2-week run-in on Levora and 2 treatment periods of 28 days each. […] Subjects were crossed over to the alternative treatment and procedures were repeated in Period 2. The OC was administered daily through D28 of each period.
# [2] = compared to OC alone, cited from earlier work; for decrease of Cmax: repeated daily doses of OC given 30 minutes after BYETTA (10 mcg BID), healthy female subjects; for decrease of mean Cmax: repeated daily doses of OC one hour prior to BYETTA
# [3] = human, in vivo, po
# Method: APAP, a marker of gastric emptying, was administered on Day (D)1 followed by the cocktail on D2. […] APAP was administered again on D27 and the cocktail on D28.
# [4] = cited from earlier work
# [5] = 1000 mg acetaminophen elixir given 1 hour after 10 mcg BYETTA injection
# [6] = 1000 mg acetaminophen elixir given 2 hours after 10 mcg BYETTA injection
# [7] = 1000 mg acetaminophen elixir given 4 hours after 10 mcg BYETTA injection
# [8] = 1000 mg acetaminophen elixir given with 10 mcg BYETTA (0 h)
# [9] = acetaminophen given 1 hour before BYETTA injection
Compound,effect of ITCA 650 on PK [1],decrease of Cmax [2] [%],decrease of mean Cmax [2],effect of ITCA 650 on PK of the co-administered drug [3],"Tmax [4, 5] [h]","decrease of Cmax [4, 5] [%]","decrease of acetaminophen AUC [4, 5] [%]","Tmax [4, 6] [h]","decrease of Cmax [4, 6] [%]","decrease of acetaminophen AUC [4, 6] [%]","Tmax [4, 7] [h]","decrease of Cmax [4, 7] [%]","decrease of acetaminophen AUC [4, 7] [%]","Tmax [4, 8] [h]","decrease of Cmax [4, 8] [%]","decrease of acetaminophen AUC [4, 8] [%]","AUC change [4, 9]","Cmax change [4, 9]","Tmax change [4, 9]",Tmax ([4]; control period (without BYETTA)) [h]
C#C[C@]1(O)CC[C@H]2[C@@H]3CCC4=CC(=O)CC[C@@H]4[C@H]3CC[C@@]21CC [levonorgestrel],No effect,27,not significantly changed,–,–,–,–,–,–,–,–,–,–,–,–,–,–,–,–,–
C#C[C@]1(O)CC[C@H]2[C@@H]3CCc4cc(O)ccc4[C@H]3CC[C@@]21C [ethinyl estradiol],–,45,15%,–,–,–,–,–,–,–,–,–,–,–,–,–,–,–,–,–
CC(=O)Nc1ccc(O)cc1 [acetaminophen],–,–,–,minimal effect,4.2,56,23,3.3,54,24,1.6,41,14,0.9,37,21,not significantly changed,not significantly changed,not significantly changed,0.6
